Measurements taken from patent US20220081412A1, “QUINOLINYL-PYRAZINE-CARBOXAMIDE COMPOUNDS AND USES THEREOF” (The Regents of the University of Michigan, priority 2018, published 2022).

Test system: cancer cells
Assay: Proteomics study (up- and downregulated proteins)
Type: cell-based
Conditions: for Hydroxymethylglutaryl-CoA synthase, cytoplasmic (HMGCS1) protein: proteomics
Excerpt: Proteomics provide a comprehensive understanding of mechanisms that are responsible for the cytotoxicity of anticancer drugs, and based on the expression of protein helps in identification of drug targets (see, Wang, Y.; et al., Met Based Drugs. 2008, 1-9). One of the disadvantages of proteomics is membrane-bound proteins due to their poor solubility and low abundance, are disproportionally represented in proteome profiles (see, Smith, C. Nature, 2004, 428, 225-231). Identification of target proteins utilizing proteomics technique coupled with mass spectrometry is an evolving technology platform that has the potential to identify novel proteins involved in key biological processes in cells. There are two mass spectrometry-based methods currently used for protein profiling. The use of high-resolution two-dimensional electrophoresis to separate proteins from different samples, followed by selection and staining of differentially expressed proteins to be identified by mass spectrometry is the more established method. In the second approach isotope coded affinity tag (ICAT) reagents are utilized to differentially label proteins from two different complex mixtures, that are then digested to yield labeled peptides. The labeled mixtures are then combined, the peptides separated by multidimensional liquid chromatography and analyzed by tandem mass spectrometry. In this method, complexity of the mixtures omitting the non-cysteine residues is reduced as here the cysteine residues of proteins get covalently attached to the ICAT reagent. Proteomics coupled with bioinformatics process the raw mass spectral data into protein data (see, Yu, L. R.; Essentials of Genomic and Personalized Medicine 2010, 89-96). The most critical software programs take peptide mapping and/or tandem MS results and determine the protein or peptide sequence that are most closely related to the experimental data. One of the more intriguing MS-based proteomic techniques is to identify the proteins which are overexpressed thus aids in identification of the target protein of the given drug. There are several examples reported in literature about successful application of Bru-seq and proteomics for identification of mechanism of action of drugs.
It is the second step in the mevalonate-dependent isoprenoid biosynthesis pathway. HMG-CoA is an intermediate in both cholesterol synthesis and ketogenesis. Thus, here the proteomics results are in accordance with the Bru-seq results, implying “cholesterol biosynthesis pathway” as key pathway activated by these series of compounds.
Among its related pathways are regulation of cholesterol biosynthesis by SREBP (SREBF) and terpenoid backbone biosynthesis.

[1] = protein: 28S ribosomal protein S16, mitochondrial, downregulated
[2] = protein: 28S ribosomal protein S17, mitochondrial, downregulated
[3] = protein: 28S ribosomal protein S18b, mitochondrial, downregulated
[4] = protein: 28S ribosomal protein S22, mitochondrial, downregulated
[5] = protein: 28S ribosomal protein S25, mitochondrial, downregulated
[6] = protein: 40S ribosomal protein S8, upregulated
[7] = protein: 40S ribosomal protein S26, upregulated
[8] = protein: 40S ribosomal protein S30, upregulated
[9] = protein: 60S ribosomal protein L19, upregulated
[10] = protein: 60S ribosomal protein L27a, upregulated
[11] = protein: 60S ribosomal protein L36a-like, upregulated
[12] = protein: 60S ribosomal protein L37, upregulated
[13] = protein: Aconitate hydratase, mitochondrial, downregulated
[14] = protein: Acyl-CoA desaturase, upregulated
[15] = protein: Alanine aminotransferase 2, upregulated
[16] = protein: Aldehyde dehydrogenase X, downregulated
[17] = protein: Apolipoprotein A-I, upregulated
[18] = protein: Apolipoprotein B-100, upregulated
[19] = protein: Apolipoprotein C-III, upregulated
[20] = protein: Beta-2-glycoprotein 1, upregulated
[21] = protein: Bleomycin hydrolase, upregulated
[22] = protein: Constitutive coactivator of peroxisome proliferator-activated receptor gamma, downregulated
[23] = protein: Copper-transporting ATPase 2, upregulated
[24] = protein: D-dopachrome decarboxylase, downregulated
[25] = protein: DNA topoisomerase 2-alpha, downregulated
[26] = protein: Deoxyribonuclease-2-alpha, upregulated
[27] = protein: Dermcidin, upregulated
[28] = protein: Diphthine methyltransferase, upregulated
[29] = protein: E3 ubiquitin-protein ligase TRIM69, upregulated
[30] = protein: Elongation factor G, mitochondrial, downregulated
[31] = protein: FAST kinase domain-containing protein 5, mitochondrial, downregulated
[32] = protein: Filamin-C, upregulated
[33] = protein: GH3 domain-containing protein, upregulated
[34] = protein: Histone H1.2, downregulated
[35] = protein: Hydroxymethylglutaryl-CoA synthase, cytoplasmic, upregulated
[36] = protein: Interleukin-36 beta, downregulated
[37] = protein: Iron-responsive element-binding protein 2, upregulated
[38] = protein: Keratin, type I cytoskeletal 20, downregulated
[39] = protein: Kinesin-like protein KIF27, upregulated
[40] = protein: LanC-like protein 2, downregulated
[41] = protein: MBT domain-containing protein 1, downregulated
[42] = protein: Mixed lineage kinase domain-like protein, upregulated
[43] = protein: Muellerian-inhibiting factor, upregulated
[44] = protein: NADH dehydrogenase [ubiquinone] 1 alpha subcomplex subunit 6, downregulated
[45] = protein: NADH dehydrogenase [ubiquinone] iron-sulfur protein 4, mitochondrial, downregulated
[46] = protein: NADH-ubiquinone oxidoreductase 75 kDa subunit, mitochondrial, downregulated
[47] = protein: Nucleolar transcription factor 1, downregulated
[48] = protein: Phosphatidylserine synthase 1, upregulated
[49] = protein: Proliferation marker protein Ki-67, downregulated
[50] = protein: Protein FAM83H, downregulated
[51] = protein: Protein FAM177A1, upregulated
[52] = protein: Protein PIMREG, upregulated
[53] = protein: Protein cornichon homolog 4, upregulated
[54] = protein: Putative ankyrin repeat domain-containing protein 31, upregulated
[55] = protein: RNA-binding motif protein, X chromosome, downregulated
[56] = protein: Scaffold attachment factor B1, downregulated
[57] = protein: Scaffold attachment factor B2, downregulated
[58] = protein: Sequestosome-1, upregulated
[59] = protein: Serine/threonine-protein kinase PLK4, upregulated
[60] = protein: Squalene synthase, upregulated
[61] = protein: Transcription elongation factor 1 homolog, downregulated

Compound: CCN(CC)CCCC(C)Nc1cnc(C(=O)Nc2cc(C)cc3cccnc23)cn1 (stereo not drawn) [J4, 5-((5-(diethylamino)pentan-2-yl)amino)-N-(6-methylquinolin-8-yl)pyrazine-2-carboxamide]
- Abundance ratio [1]: 0.403
- Abundance ratio (log2) [1]: −1.31
- Abundance ratio [2]: 0.452
- Abundance ratio (log2) [2]: −1.15
- Abundance ratio [3]: 0.337
- Abundance ratio (log2) [3]: −1.57
- Abundance ratio [4]: 0.432
- Abundance ratio (log2) [4]: −1.21
- Abundance ratio [5]: 0.402
- Abundance ratio (log2) [5]: −1.32
- Abundance ratio [6]: 1.777
- Abundance ratio (log2) [6]: 0.83
- Abundance ratio [7]: 1.717
- Abundance ratio (log2) [7]: 0.78
- Abundance ratio [8]: 1.649
- Abundance ratio (log2) [8]: 0.72
- Abundance ratio [9]: 1.761
- Abundance ratio (log2) [9]: 0.82
- Abundance ratio [10]: 1.713
- Abundance ratio (log2) [10]: 0.78
- Abundance ratio [11]: 1.623
- Abundance ratio (log2) [11]: 0.7
- Abundance ratio [12]: 1.808
- Abundance ratio (log2) [12]: 0.85
- Abundance ratio [13]: 0.489
- Abundance ratio (log2) [13]: −1.03
- Abundance ratio [14]: 2.148
- Abundance ratio (log2) [14]: 1.1
- Abundance ratio [15]: 1.616
- Abundance ratio (log2) [15]: 0.69
- Abundance ratio [16]: 0.278
- Abundance ratio (log2) [16]: −1.85
- Abundance ratio [17]: 1.891
- Abundance ratio (log2) [17]: 0.92
- Abundance ratio [18]: 2.151
- Abundance ratio (log2) [18]: 1.1
- Abundance ratio [19]: 2.072
- Abundance ratio (log2) [19]: 1.05
- Abundance ratio [20]: 1.622
- Abundance ratio (log2) [20]: 0.7
- Abundance ratio [21]: 1.845
- Abundance ratio (log2) [21]: 0.88
- Abundance ratio [22]: 0.419
- Abundance ratio (log2) [22]: −1.25
- Abundance ratio [23]: 1.807
- Abundance ratio (log2) [23]: 0.85
- Abundance ratio [24]: 0.487
- Abundance ratio (log2) [24]: −1.04
- Abundance ratio [25]: 0.381
- Abundance ratio (log2) [25]: −1.39
- Abundance ratio [26]: 1.649
- Abundance ratio (log2) [26]: 0.72
- Abundance ratio [27]: 2.454
- Abundance ratio (log2) [27]: 1.3
- Abundance ratio [28]: 1.633
- Abundance ratio (log2) [28]: 0.71
- Abundance ratio [29]: 1.906
- Abundance ratio (log2) [29]: 0.93
- Abundance ratio [30]: 0.245
- Abundance ratio (log2) [30]: −2.03
- Abundance ratio [31]: 0.382
- Abundance ratio (log2) [31]: −1.39
- Abundance ratio [32]: 2.026
- Abundance ratio (log2) [32]: 1.02
- Abundance ratio [33]: 1.742
- Abundance ratio (log2) [33]: 0.8
- Abundance ratio [34]: 0.462
- Abundance ratio (log2) [34]: −1.11
- Abundance ratio [35]: 1.944
- Abundance ratio (log2) [35]: 0.96
- Abundance ratio [36]: 0.462
- Abundance ratio (log2) [36]: −1.12
- Abundance ratio [37]: 2.136
- Abundance ratio (log2) [37]: 1.09
- Abundance ratio [38]: 0.439
- Abundance ratio (log2) [38]: −1.19
- Abundance ratio [39]: 1.89
- Abundance ratio (log2) [39]: 0.92
- Abundance ratio [40]: 0.327
- Abundance ratio (log2) [40]: −1.61
- Abundance ratio (protein: Lumican, upregulated): 1.612
- Abundance ratio (log2) (protein: Lumican, upregulated): 0.69
- Abundance ratio [41]: 0.233
- Abundance ratio (log2) [41]: −2.1
- Abundance ratio [42]: 1.861
- Abundance ratio (log2) [42]: 0.9
- Abundance ratio [43]: 1.824
- Abundance ratio (log2) [43]: 0.87
- Abundance ratio [44]: 0.473
- Abundance ratio (log2) [44]: −1.08
- Abundance ratio [45]: 0.468
- Abundance ratio (log2) [45]: −1.1
- Abundance ratio [46]: 0.488
- Abundance ratio (log2) [46]: −1.03
- Abundance ratio [47]: 0.484
- Abundance ratio (log2) [47]: −1.05
- Abundance ratio [48]: 1.946
- Abundance ratio (log2) [48]: 0.96
- Abundance ratio [49]: 0.474
- Abundance ratio (log2) [49]: −1.08
- Abundance ratio [50]: 0.46
- Abundance ratio (log2) [50]: −1.12
- Abundance ratio [51]: 3.085
- Abundance ratio (log2) [51]: 1.63
- Abundance ratio [52]: 1.711
- Abundance ratio (log2) [52]: 0.77
- Abundance ratio [53]: 1.656
- Abundance ratio (log2) [53]: 0.73
- Abundance ratio [54]: 1.786
- Abundance ratio (log2) [54]: 0.84
- Abundance ratio [55]: 0.441
- Abundance ratio (log2) [55]: −1.18
- Abundance ratio [56]: 0.401
- Abundance ratio (log2) [56]: −1.32
- Abundance ratio [57]: 0.405
- Abundance ratio (log2) [57]: −1.3
- Abundance ratio [58]: 1.69
- Abundance ratio (log2) [58]: 0.76
- Abundance ratio [59]: 3.158
- Abundance ratio (log2) [59]: 1.66
- Abundance ratio [60]: 1.597
- Abundance ratio (log2) [60]: 0.68
- Abundance ratio [61]: 0.364
- Abundance ratio (log2) [61]: −1.46
- Hydroxymethylglutaryl-CoA synthase, cytoplasmic (HMGCS1) protein: upregulation
- Hydroxymethylglutaryl-CoA synthase, cytoplasmic (HMGCS1) protein (listed as JR-1-235): upregulated
